≈ marks a conversion by molar mass, not a printed value. Each block holds one molecule with its values, some of them ahead of it. Calls of active or inactive are those of the source. No cut-off for these calls is given here.
Assays:
[1] = target: Tyrosine-protein kinase JAK1 (Homo sapiens, UniProt P23458)
[2] = target: Tyrosine-protein kinase JAK2 (Homo sapiens, UniProt O60674)
[3] = target: T1, Tyrosine-protein kinase JAK3 (Homo sapiens, UniProt P52333)
T1 sequence (P52333 whole entry): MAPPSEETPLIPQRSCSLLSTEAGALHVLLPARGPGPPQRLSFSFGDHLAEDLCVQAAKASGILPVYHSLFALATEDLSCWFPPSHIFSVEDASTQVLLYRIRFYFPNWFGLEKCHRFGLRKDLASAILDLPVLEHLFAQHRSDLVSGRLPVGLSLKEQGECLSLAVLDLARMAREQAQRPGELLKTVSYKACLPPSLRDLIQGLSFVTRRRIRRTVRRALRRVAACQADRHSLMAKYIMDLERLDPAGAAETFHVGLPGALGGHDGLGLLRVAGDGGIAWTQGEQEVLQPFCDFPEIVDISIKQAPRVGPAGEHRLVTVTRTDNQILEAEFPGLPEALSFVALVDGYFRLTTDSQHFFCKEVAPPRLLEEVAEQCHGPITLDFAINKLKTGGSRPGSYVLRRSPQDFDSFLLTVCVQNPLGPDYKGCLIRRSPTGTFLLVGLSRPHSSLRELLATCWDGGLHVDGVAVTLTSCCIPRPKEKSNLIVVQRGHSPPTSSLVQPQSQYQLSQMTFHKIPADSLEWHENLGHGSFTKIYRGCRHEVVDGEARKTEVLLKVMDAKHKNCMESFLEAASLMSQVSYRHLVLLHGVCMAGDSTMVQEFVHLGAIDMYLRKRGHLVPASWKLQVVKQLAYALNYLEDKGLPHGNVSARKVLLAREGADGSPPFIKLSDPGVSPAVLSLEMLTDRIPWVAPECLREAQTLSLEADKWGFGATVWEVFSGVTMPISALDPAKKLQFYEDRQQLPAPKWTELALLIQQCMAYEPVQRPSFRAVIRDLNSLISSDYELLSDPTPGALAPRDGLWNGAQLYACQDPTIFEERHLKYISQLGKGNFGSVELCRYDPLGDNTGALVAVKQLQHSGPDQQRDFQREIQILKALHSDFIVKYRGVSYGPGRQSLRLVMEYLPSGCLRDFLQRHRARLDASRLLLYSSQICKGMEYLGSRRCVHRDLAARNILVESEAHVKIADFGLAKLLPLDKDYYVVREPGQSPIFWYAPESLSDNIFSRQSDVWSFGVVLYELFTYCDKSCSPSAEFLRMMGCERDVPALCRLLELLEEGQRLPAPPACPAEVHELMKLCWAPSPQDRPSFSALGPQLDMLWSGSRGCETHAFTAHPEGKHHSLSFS

JAK3/JAK1 [4] = target: T2, JAK3/JAK1 (Homo sapiens, UniProt P23458+P52333); format: cell-based, M07E
T2 sequence (P23458 whole entry, one chain of several): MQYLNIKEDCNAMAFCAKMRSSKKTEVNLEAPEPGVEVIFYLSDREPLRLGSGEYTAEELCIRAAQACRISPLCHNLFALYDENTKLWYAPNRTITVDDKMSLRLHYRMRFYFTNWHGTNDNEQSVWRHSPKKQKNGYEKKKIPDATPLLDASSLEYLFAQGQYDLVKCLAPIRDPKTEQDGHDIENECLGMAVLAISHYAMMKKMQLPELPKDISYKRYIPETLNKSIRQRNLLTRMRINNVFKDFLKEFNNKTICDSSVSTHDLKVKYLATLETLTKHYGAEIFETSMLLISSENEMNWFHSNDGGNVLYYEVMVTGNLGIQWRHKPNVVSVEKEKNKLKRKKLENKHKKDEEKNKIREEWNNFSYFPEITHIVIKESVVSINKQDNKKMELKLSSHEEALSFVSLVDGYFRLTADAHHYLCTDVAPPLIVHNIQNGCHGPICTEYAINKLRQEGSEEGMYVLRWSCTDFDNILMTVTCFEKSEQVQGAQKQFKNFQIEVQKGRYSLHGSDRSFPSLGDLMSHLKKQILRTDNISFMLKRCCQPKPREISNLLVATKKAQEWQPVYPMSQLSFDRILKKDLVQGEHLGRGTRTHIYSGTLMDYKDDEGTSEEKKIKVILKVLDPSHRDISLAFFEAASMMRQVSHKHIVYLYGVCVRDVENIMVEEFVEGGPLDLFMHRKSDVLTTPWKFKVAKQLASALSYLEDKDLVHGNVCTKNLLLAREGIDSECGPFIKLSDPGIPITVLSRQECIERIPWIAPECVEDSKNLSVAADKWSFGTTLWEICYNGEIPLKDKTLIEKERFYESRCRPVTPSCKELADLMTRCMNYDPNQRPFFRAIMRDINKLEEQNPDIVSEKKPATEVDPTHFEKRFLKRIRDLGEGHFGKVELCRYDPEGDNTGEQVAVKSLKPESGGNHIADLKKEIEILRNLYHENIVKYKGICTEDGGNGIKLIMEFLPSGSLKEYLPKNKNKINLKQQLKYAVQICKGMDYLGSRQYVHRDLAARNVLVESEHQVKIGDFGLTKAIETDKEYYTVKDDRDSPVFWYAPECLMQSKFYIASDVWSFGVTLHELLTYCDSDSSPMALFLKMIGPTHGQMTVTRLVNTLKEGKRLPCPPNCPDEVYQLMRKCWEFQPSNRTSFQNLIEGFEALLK
Description: Inhibition of JAK1/JAK3 in human M07E cells assessed as reduction of IL-15 stimulated STAT phosphorylation preincubated for 30 mins followed by IL-15 stimulation and measured after 15 mins by flow cytometry analysis

JAK1/TYK2 = JAK1/TYK2 (Homo sapiens, UniProt P23458+P29597); format: cell-based, M07E
Sequence of JAK1/TYK2 (P23458 whole entry): as the sequence (P23458 whole entry, one chain of several) above
Sequence of JAK1/TYK2 (P29597 whole entry): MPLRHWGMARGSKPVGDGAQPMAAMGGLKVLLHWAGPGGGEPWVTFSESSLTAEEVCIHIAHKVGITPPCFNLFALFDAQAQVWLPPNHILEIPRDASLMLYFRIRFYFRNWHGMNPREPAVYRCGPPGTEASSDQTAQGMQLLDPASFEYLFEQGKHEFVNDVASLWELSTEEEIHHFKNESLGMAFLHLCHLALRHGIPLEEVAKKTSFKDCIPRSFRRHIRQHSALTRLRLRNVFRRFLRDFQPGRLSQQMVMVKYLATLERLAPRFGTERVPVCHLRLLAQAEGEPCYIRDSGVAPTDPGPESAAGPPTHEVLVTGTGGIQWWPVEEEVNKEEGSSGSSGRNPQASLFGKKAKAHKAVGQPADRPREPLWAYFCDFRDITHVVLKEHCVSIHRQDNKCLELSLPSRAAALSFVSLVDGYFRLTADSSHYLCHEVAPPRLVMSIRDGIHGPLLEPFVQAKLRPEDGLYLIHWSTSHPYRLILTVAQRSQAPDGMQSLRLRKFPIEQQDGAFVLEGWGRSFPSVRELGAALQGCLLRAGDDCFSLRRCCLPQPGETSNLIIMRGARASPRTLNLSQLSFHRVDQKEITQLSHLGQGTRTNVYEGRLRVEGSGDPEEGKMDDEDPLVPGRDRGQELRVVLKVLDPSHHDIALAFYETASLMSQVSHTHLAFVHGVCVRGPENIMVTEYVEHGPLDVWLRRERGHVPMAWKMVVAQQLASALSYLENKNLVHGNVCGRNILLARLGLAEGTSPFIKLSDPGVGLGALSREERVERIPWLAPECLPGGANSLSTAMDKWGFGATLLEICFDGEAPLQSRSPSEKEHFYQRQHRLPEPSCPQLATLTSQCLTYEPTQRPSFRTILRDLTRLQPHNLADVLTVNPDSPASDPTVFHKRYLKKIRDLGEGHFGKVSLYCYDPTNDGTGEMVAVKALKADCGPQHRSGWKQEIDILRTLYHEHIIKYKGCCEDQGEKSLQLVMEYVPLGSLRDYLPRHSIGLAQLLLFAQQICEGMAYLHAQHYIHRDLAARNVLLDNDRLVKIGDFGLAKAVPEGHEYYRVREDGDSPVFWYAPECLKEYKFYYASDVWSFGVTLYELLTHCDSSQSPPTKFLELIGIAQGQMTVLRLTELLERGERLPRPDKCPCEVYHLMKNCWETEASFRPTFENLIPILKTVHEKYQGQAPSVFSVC
Description: Inhibition of JAK1/TYK2 in human M07E cells assessed as reduction of IFN alpha stimulated STAT phosphorylation preincubated for 30 mins followed by IFN alpha stimulation and measured after 15 mins by flow cytometry method

JAK3/JAK1 [5] = target: T2, JAK3/JAK1; format: tissue-based, Blood
Description: Inhibition of JAK1/JAK3 in human blood assessed as reduction of IL-2 stimulated STAT phosphorylation preincubated for 30 mins followed by IL-2 stimulation and measured after 15 mins by flow cytometry method

[6] = Lipophilicity, log D of the compound; format: physicochemical; settings: octanol/water
[7] = target: Non-receptor tyrosine-protein kinase TYK2 (Homo sapiens, UniProt P29597)
Sequence of Non-receptor tyrosine-protein kinase TYK2 (P29597 whole entry): as above
Description: Inhibition of TYK2 (unknown origin) by caliper technology

in vitro = settings: human, liver microsomes
Description: Microsomal stability in human liver microsomes assessed as intrinsic clearance

[8] = Plasma protein binding in human; format: ADME, cell-free; settings: read-out: PPB
[9] = Metabolic stability in minipig hepatocytes assessed as intrinsic clearance; format: ADME, cell-based, Sus scrofa domesticus, Hepatocyte; settings: pig
[10] = Microsomal stability in rat liver microsomes assessed as intrinsic clearance; format: ADME, Microsome
[11] = Microsomal stability in minipig liver microsomes assessed as intrinsic clearance; format: ADME, Sus scrofa domesticus, Microsome; settings: pig
[12] = Metabolic stability in rat hepatocytes assessed as intrinsic clearance; format: ADME, cell-based, Hepatocyte
[13] = Metabolic stability in human hepatocytes assessed as intrinsic clearance; format: ADME, cell-based, Hepatocyte
[14] = Clearance in rat; format: ADME; settings: in vivo
[15] = Half life in rat; format: ADME; settings: in vivo
[16] = Clearance in minipig; format: ADME, Sus scrofa domesticus; settings: pig, in vivo
[17] = Half life in minipig; format: ADME, Sus scrofa domesticus; settings: pig, in vivo
[18] = target: Mitogen-activated protein kinase kinase kinase kinase 4 (Homo sapiens, UniProt O95819); assay: Inhibition of MAP4K4 (unknown origin) by caliper microfluidic mobility shift technology
Sequence of Mitogen-activated protein kinase kinase kinase kinase 4 (O95819 whole entry): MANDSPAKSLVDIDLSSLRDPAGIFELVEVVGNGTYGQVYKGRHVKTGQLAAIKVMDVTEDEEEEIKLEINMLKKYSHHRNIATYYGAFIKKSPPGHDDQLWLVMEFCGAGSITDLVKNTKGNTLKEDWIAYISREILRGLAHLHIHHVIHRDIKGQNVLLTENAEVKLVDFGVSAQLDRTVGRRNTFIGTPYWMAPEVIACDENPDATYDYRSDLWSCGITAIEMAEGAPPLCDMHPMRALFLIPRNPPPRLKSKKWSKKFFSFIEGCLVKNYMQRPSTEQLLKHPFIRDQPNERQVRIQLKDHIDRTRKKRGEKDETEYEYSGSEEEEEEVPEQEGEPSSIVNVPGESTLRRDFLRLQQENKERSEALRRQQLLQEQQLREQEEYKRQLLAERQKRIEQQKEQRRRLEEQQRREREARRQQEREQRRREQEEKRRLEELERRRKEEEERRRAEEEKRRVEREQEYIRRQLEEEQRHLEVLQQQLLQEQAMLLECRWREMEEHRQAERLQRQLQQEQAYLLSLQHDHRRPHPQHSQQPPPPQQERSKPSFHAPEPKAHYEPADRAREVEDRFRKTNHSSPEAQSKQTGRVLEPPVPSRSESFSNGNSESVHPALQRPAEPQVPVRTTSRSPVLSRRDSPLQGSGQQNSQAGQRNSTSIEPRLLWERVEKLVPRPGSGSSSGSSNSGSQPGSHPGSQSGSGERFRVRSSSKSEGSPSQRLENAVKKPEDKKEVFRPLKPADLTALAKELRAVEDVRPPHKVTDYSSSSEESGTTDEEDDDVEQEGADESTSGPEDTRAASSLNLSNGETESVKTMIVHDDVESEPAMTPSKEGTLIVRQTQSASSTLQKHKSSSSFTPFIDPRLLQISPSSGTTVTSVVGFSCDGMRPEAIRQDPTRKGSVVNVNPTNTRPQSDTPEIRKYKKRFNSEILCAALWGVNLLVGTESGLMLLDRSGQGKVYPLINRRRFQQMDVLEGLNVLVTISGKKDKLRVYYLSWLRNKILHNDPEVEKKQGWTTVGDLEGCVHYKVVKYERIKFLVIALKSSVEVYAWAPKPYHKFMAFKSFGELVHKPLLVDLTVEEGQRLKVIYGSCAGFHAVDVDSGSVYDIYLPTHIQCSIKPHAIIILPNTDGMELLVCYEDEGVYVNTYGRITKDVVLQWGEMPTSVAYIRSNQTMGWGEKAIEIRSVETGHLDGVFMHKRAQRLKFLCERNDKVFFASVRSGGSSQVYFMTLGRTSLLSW

[19] = target: Glycogen synthase kinase-3 beta (Homo sapiens, UniProt P49841); assay: Inhibition of GSK3B (unknown origin) by caliper microfluidic mobility shift technology
[20] = […] in mouse 3T3 cells by neutral red uptake assay; format: toxicity, cell-based; settings: nih3t3
[21] = target: T3, Janus Kinase (JAK) (Homo sapiens) (UniProt P52333+P23458+O60674+P29597); assay: Inhibition of JAK in human skin assessed as reduction in TARC release at 10 uM incubated for 24 hrs in the presence of IL4/IL13 by MSD analysis relative to control; format: tissue-based; settings: Skin of body
T3 sequence (O60674 whole entry, looked up, one chain of several): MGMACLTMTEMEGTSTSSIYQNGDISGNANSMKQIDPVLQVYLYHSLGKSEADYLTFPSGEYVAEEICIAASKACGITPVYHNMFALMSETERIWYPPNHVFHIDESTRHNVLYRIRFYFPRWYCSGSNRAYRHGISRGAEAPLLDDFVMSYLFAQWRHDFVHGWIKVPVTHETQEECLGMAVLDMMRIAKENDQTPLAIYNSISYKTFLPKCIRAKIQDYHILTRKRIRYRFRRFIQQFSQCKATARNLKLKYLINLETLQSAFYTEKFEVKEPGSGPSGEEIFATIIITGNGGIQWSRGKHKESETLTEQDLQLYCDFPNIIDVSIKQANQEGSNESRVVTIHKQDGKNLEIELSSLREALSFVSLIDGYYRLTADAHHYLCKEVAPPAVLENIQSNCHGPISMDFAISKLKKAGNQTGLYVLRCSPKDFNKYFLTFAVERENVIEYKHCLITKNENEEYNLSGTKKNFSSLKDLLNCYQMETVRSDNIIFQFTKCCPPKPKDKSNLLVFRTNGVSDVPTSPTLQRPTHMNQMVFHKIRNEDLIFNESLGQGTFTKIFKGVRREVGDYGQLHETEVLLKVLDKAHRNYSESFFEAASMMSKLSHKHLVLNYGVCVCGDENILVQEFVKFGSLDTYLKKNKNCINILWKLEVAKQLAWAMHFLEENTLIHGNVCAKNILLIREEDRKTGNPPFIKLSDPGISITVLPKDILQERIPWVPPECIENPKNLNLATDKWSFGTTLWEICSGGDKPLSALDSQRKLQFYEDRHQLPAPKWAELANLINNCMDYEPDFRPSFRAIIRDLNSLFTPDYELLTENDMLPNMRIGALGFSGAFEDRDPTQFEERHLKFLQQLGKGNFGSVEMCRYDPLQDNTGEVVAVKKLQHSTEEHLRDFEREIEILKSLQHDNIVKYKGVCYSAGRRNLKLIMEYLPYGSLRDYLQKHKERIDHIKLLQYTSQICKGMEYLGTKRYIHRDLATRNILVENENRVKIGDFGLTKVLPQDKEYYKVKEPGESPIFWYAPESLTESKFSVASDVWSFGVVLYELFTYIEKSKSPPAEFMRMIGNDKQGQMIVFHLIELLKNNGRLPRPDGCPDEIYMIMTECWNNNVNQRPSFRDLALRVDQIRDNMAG
T3 sequence (P23458 whole entry, looked up, one chain of several): as the sequence (P23458 whole entry, one chain of several) above
T3 sequence (P29597 whole entry, looked up, one chain of several): as the sequence (P29597 whole entry) above

[22] = target: T3, Janus Kinase (JAK) (Homo sapiens); assay: Inhibition of JAK in human skin assessed as reduction in TARC release at 1 uM incubated for 24 hrs in the presence of IL4/IL13 by MSD analysis relative to control; format: tissue-based; settings: Skin of body
Homo sapiens [23] = assay: Inhibition of IL4/IL13 stimulated TARC gene expression in human fresh skin epidermal explant Franz cell model administered topically to human skin epidermis preincubated with compound overnight followed by IL4/IL13 stimulation and measured after 24 hrs by qRT-PCR analysis; format: functional, tissue-based; settings: Skin of body, route top, time 32.0 hrs
Homo sapiens [24] = assay: Inhibition of IL4/IL13 stimulated MMP12 gene expression in human fresh skin epidermal explant Franz cell model administered topically to human skin epidermis preincubated with compound overnight followed by IL4/IL13 stimulation and measured after 24 hrs by qRT-PCR analysis; format: functional, tissue-based; settings: Skin of body, route top, time 32.0 hrs
Homo sapiens [25] = assay: Inhibition of IL4/IL13 stimulated Eotaxin 3 gene expression in human fresh skin epidermal explant Franz cell model administered topically to human skin epidermis preincubated with compound overnight followed by IL4/IL13 stimulation and measured after 24 hrs by qRT-PCR analysis; format: functional, tissue-based; settings: Skin of body, route top, time 32.0 hrs
[26] = Aqueous solubility of the compound at pH 6.8; format: physicochemical
[27] = target: T4, Signal transducer and activator of transcription 6 (Homo sapiens) (UniProt P42226); assay: Inhibition of IL4/IL13 induced STAT6 phosphorylation in topically administered human skin assessed as reduction in phosphorylated STAT6 level preincubated with compound overnight followed by IL4/1L13 stimulation and measured after 3 hrs by Western blot analysis; format: tissue-based; settings: Skin of body, route top, time 11.0 hrs
T4 sequence (whole entry): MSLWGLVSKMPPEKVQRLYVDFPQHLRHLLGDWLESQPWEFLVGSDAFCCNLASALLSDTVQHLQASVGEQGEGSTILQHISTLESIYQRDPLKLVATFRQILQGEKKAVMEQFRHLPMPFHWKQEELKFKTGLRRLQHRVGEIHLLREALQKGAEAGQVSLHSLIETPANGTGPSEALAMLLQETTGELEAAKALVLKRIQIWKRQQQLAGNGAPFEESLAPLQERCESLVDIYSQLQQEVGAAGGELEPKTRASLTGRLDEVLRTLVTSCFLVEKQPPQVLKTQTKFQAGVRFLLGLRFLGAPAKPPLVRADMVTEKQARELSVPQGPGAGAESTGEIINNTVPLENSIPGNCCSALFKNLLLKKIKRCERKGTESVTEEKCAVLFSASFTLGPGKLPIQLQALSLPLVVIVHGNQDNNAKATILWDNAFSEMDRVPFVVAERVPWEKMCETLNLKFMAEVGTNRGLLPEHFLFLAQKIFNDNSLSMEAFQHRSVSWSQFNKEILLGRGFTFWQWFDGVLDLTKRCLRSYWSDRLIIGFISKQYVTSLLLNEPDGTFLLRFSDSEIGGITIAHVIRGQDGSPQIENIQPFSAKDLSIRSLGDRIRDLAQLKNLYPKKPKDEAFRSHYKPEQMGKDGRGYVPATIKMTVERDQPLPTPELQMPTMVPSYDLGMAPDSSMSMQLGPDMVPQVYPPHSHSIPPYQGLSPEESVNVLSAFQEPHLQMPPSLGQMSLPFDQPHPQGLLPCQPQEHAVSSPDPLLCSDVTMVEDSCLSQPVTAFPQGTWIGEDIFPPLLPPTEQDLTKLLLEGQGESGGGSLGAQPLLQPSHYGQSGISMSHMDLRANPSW

Homo sapiens [28] = assay: Inhibition of IL4/IL13 induced MMP12 gene expression in topically administered human skin preincubated with compound overnight followed by IL4/IL13 stimulation and measured after 3 hrs by qRT-PCR analysis; format: functional, tissue-based; settings: Skin of body, route top, time 11.0 hrs
[29] = Drug exposure in topically dosed minipig and measured for 14 days; format: ADME, organism-based, Sus scrofa domesticus; settings: pig, in vivo, topical_or_ocular, 336 h; route top, time 14 day
[30] = Drug excretion in iv dosed bile duct cannulated rat urine assessed as unchanged drug; format: ADME, organism-based; settings: read-out: Drug excretion
[31] = Drug excretion in iv dosed bile duct cannulated rat bile assessed as unchanged drug; format: ADME, organism-based; settings: read-out: Drug excretion
[32] = Drug concentration in topically administered human skin epidermis by MALDI-IMS analysis; format: ADME, tissue-based; settings: topical_or_ocular, route top, read-out: Drug uptake
[33] = Drug uptake in topically administered human skin at 0.5 mm of depth by MALDI-IMS analysis; format: ADME, tissue-based, Skin of body; settings: topical or ocular, route top, read-out: Drug uptake
[34] = Drug uptake in topically administered human skin at 1 mm of depth by MALDI-IMS analysis; format: ADME, tissue-based, Skin of body; settings: topical or ocular, route top, read-out: Drug uptake

Sequence of Tyrosine-protein kinase JAK1 (P23458 whole entry): as the sequence (P23458 whole entry, one chain of several) above
Sequence of Tyrosine-protein kinase JAK2 (O60674 whole entry): as the sequence (O60674 whole entry, looked up, one chain of several) above

- IC50 [1]: 29 nM
- IC50 [2]: 29 nM
- IC50 [3]: 39 nM
- IC50 (JAK3/JAK1 [4]): 66 nM
- IC50 (JAK1/TYK2): 51 nM
- IC50 (JAK3/JAK1 [5]): 486 nM
- logD [6]: 2.4
- IC50 [7]: 19 nM
- microsomal CLint (in vitro): 127 µL/min/mg
Structure (SMILES): COc1ccccc1Nc1cc(Nc2cccnn2)ncc1C(N)=O

- IC50 [1]: 9 nM
- IC50 [2]: 8 nM
- IC50 [3]: 11 nM
- IC50 (JAK3/JAK1 [4]): 45 nM
- IC50 (JAK1/TYK2): 31 nM
- IC50 (JAK3/JAK1 [5]): 340 nM
- logD [6]: 3.4
- IC50 [7]: 6 nM
- microsomal CLint (in vitro): 210 µL/min/mg
Structure (SMILES): COc1ccccc1Nc1cc(Nc2ccccn2)ncc1C(N)=O

- microsomal CLint (in vitro): 40 µL/min/mg
Structure (SMILES): N#CC[C@H](C1CCCC1)n1cc(-c2ncnc3[nH]ccc23)cn1 [RUXOLITINIB]

- microsomal CLint (in vitro): < 25 µL/min/mg
Structure (SMILES): C[C@H]1CN(C(=O)CC#N)[C@]12CCN(c1ncnc3[nH]ccc13)C2 [DELGOCITINIB]

- IC50 [1]: 22 nM
- IC50 [2]: 27 nM
- IC50 [3]: 10 nM
- IC50 (JAK3/JAK1 [4]): 41 nM
- IC50 (JAK1/TYK2): 84 nM
- IC50 (JAK3/JAK1 [5]): 564 nM
- logD [6]: 3.7
- fraction unbound [8]: < 0.01
- IC50 [7]: 11 nM
- microsomal CLint (in vitro): 227 µL/min/mg
Structure (SMILES): NC(=O)c1cnc(Nc2ccccn2)cc1Nc1ccccc1Cl

- IC50 [1]: 14 nM
- IC50 [2]: 14 nM
- IC50 [3]: 18 nM
- IC50 (JAK3/JAK1 [4]): 85 nM
- IC50 (JAK1/TYK2): 33 nM
- IC50 (JAK3/JAK1 [5]): 994 nM
- logD [6]: 3.7
- IC50 [7]: 15 nM
- microsomal CLint (in vitro): 179 µL/min/mg
Structure (SMILES): COc1ccccc1Nc1cc(Nc2cccc(C)n2)ncc1C(N)=O

- CLH [9]: 38 mL·min/g
- IC50 [1]: 50 nM
- IC50 [2]: 48 nM
- IC50 [3]: 59 nM
- IC50 (JAK3/JAK1 [4]): 54 nM
- IC50 (JAK1/TYK2): 85 nM
- IC50 (JAK3/JAK1 [5]): 2350 nM
- logD [6]: 4.3
- fraction unbound [8]: < 0.01
- CLH [10]: 204 mL·min/g
- CLH [11]: 67 mL·min/g
- CLH [12]: 94 mL·min/g
- CLH [13]: 47 mL·min/g
- clearance [14]: 82 mL/min/kg
- half-life [15]: 30 min
- CL [16]: 52 mL/min/g
- half-life [17]: 60 min
- IC50 [18]: 110 nM
- IC50 [19]: 380 nM
- inhibition [21]: 100%
- inhibition [22]: 74%
- solubility [26]: 0.2 µM (≈ 0.0708 µg/mL)
- inhibition [27]: Active
- Drug uptake [29]: < 1 nM
- dose excreted [30]: 1.3%
- dose excreted [31]: < 1%
- concentration [32]: 13 µM
- concentration at 500 µM [33]: 3.51 µM
- concentration at 1000 µM [34]: 1.68 µM
- IC50 [7]: 50 nM
- microsomal CLint (in vitro): 166 µL/min/mg
Structure (SMILES): Cc1cccc(Nc2cc(Nc3ccccc3Cl)c(C(N)=O)cn2)n1
- Activity [20]: Non-Toxic
- inhibition (Homo sapiens [23]): Active
- inhibition (Homo sapiens [24]): Active
- inhibition (Homo sapiens [25]): Active
- inhibition (Homo sapiens [28]): Active

- microsomal CLint (in vitro): < 25 µL/min/mg
Structure (SMILES): Cn1cc(Nc2nccc(N3CC4CCC(C3)N4C(=O)[C@@H]3CC3(F)F)n2)cn1

- microsomal CLint (in vitro): < 25 µL/min/mg
Structure (SMILES): CCS(=O)(=O)N1CC(CC#N)(n2cc(-c3ncnc4[nH]ccc34)cn2)C1 [BARICITINIB]

- microsomal CLint (in vitro): < 25 µL/min/mg
Structure (SMILES): CC[C@@H]1CN(C(=O)NCC(F)(F)F)C[C@@H]1c1cnc2cnc3[nH]ccc3n12 [UPADACITINIB]

Source: ChEMBL document CHEMBL5316322, “Discovery and Characterization of the Topical Soft JAK Inhibitor CEE321 for Atopic Dermatitis” (J Med Chem, 2023)
